Reference: PubChem BioAssay (NCI)
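Growth conditions: 96-well plates. Treatment: test compound, 48 hours, 5 concentrations. Analysis: linear interpolation between bracketing concentrations; unreached endpoints set to highest concentration. Here, GI50 denotes the concentration required for 50% inhibition of growth. TGI is the concentration that stops growth completely.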

How the values were obtained:
Assay in all cases: inhibition of tumour cell growth, NCI panel, 48 h
[1] = system: ACHN renal
[2] = system: HT29 colon
[3] = system: MOLT-4 leukemia
[4] = system: NCI/ADR-RES ovarian
[5] = system: OVCAR-3 ovarian
[6] = system: PC-3 prostate
[7] = system: RPMI-8226 leukemia
[8] = system: RXF 393 renal
[9] = system: SF-295 CNS
[10] = system: UACC-257 melanoma

SMILES	GI50 [1]	TGI [1]	GI50 [2]	TGI [2]	GI50 [3]	TGI [3]	GI50 [4]	TGI [4]	GI50 [5]	TGI [5]	GI50 [6]	TGI [6]	GI50 [7]	TGI [7]	GI50 [8]	TGI [8]	GI50 [9]	TGI [9]	GI50 [10]	TGI [10]
Cc1cccc(Cc2cnc(NC(=O)CCCOc3ccc(Cl)cc3)s2)c1	3.47 µM	> 100 µM	3.49 µM	> 100 µM	5.72 µM	> 100 µM	29.3 µM	> 100 µM	3.4 µM	> 100 µM	4.58 µM	> 100 µM	4.23 µM	> 100 µM	9.58 µM	> 100 µM	3.89 µM	> 100 µM	7.41 µM	> 100 µM
COC(=O)C(NC(=O)c1ccccc1)c1ccc(OC)c(I)c1 (stereo not given)	63.8 µM	> 100 µM	49 µM	> 100 µM	48.9 µM	> 100 µM	36.4 µM	> 100 µM	37.4 µM	88.2 µM	40.1 µM	> 100 µM	44.2 µM	> 100 µM	> 100 µM	> 100 µM	66.4 µM	> 100 µM	48.3 µM	> 100 µM
CC(=O)OC1CCC2(C)C(=CCC3C4CC(CN5CC5)C(=O)C4(C)CCC32)C1 (stereo not given)	4.17 µM	15.7 µM	3.39 µM	12.6 µM	3.1 µM	8.3 µM	16 µM	41.5 µM	4.63 µM	14.8 µM	12.7 µM	26.8 µM	1 µM	6.28 µM	9.77 µM	24.1 µM	22 µM	> 55.4 µM	12.9 µM	26.4 µM
O=C(/C=C/N1CCN(c2cccc(Cl)c2)CC1)c1ccc(Cl)cc1	44.9 µM	> 100 µM	32.8 µM	> 100 µM	33.5 µM	> 100 µM	33.2 µM	> 100 µM	24.1 µM	73.7 µM	25.3 µM	> 100 µM	18.3 µM	50.7 µM	39.1 µM	> 100 µM	18.6 µM	54.2 µM	23.8 µM	63.5 µM
COc1cc(-c2nn(-c3cccc(NC(=O)c4cccc(C(F)(F)F)c4)c3)cc2-c2ccncc2)ccc1Cl	1.89 µM	> 50 µM	1.39 µM	20.1 µM	2.01 µM	> 50 µM	1.09 µM	3.17 µM	1.2 µM	2.98 µM	1.23 µM	> 50 µM	1.57 µM	26.6 µM	0.812 µM	3.15 µM	1.02 µM	3 µM	27.9 µM	> 50 µM
O=C(COC(=O)[C@H](C[Se][Se]C[C@H](NC(=O)c1ccc(Br)cc1F)C(=O)OCC(=O)c1ccc(F)cc1)NC(=O)c1ccc(Br)cc1F)c1ccc(F)cc1	1.65 µM	4.18 µM	0.916 µM	> 58.7 µM	3.54 µM	71.3 µM	0.821 µM	2.39 µM	0.479 µM	1.27 µM	0.375 µM	1.38 µM	0.132 µM	0.593 µM	0.422 µM	1.5 µM	0.0511 µM	0.18 µM	1.82 µM	4.39 µM
COc1cc(COC(=O)NC(Cc2cccs2)C(=O)O)c([N+](=O)[O-])cc1OC (stereo not given)	–	> 100 µM	–	> 100 µM	–	> 100 µM	–	> 100 µM	–	> 100 µM	–	> 100 µM	–	> 100 µM	–	> 100 µM	–	> 100 µM	–	> 100 µM
O=C1C(=O)c2c(ccc3ccccc23)-c2ccccc21	2.74 µM	> 100 µM	2.52 µM	6.21 µM	2.37 µM	6.83 µM	1.19 µM	5.88 µM	0.25 µM	0.713 µM	1.81 µM	6.25 µM	0.752 µM	5.26 µM	1.68 µM	3.22 µM	1.92 µM	4.6 µM	1.74 µM	4.07 µM
CC(C)(CCc1nc2ccccc2[nH]1)C(=O)O	–	> 100 µM	–	> 100 µM	–	> 100 µM	–	> 100 µM	–	> 100 µM	–	> 100 µM	–	> 100 µM	–	> 100 µM	–	> 100 µM	–	> 100 µM
CCc1c[nH]c2ncnc(N3CC[C@](N)(CNC(=O)c4ccc(F)cc4F)C3)c12	9.46 µM	> 100 µM	3.1 µM	> 100 µM	0.439 µM	46.2 µM	> 61.2 µM	> 100 µM	11.4 µM	> 100 µM	1 µM	> 91.7 µM	20.8 µM	> 100 µM	0.244 µM	8.02 µM	1 µM	> 100 µM	9.22 µM	> 100 µM
